Tests used:
[1] = Oral bioavailability in C57BL/6 mouse at 1 mg/kg measured upto 24 hrs by LC-MS/MS analysis; format: ADME, organism-based; conditions: in vivo
[2] = Chromatographic hydrophobicity index, logD of the compound; format: physicochemical
Androgen receptor [3] = target: T1, Androgen receptor (Homo sapiens, UniProt P10275); test: Induction of AR degradation in human LNCaP cells; format: cell-based
T1 sequence (P10275 whole entry): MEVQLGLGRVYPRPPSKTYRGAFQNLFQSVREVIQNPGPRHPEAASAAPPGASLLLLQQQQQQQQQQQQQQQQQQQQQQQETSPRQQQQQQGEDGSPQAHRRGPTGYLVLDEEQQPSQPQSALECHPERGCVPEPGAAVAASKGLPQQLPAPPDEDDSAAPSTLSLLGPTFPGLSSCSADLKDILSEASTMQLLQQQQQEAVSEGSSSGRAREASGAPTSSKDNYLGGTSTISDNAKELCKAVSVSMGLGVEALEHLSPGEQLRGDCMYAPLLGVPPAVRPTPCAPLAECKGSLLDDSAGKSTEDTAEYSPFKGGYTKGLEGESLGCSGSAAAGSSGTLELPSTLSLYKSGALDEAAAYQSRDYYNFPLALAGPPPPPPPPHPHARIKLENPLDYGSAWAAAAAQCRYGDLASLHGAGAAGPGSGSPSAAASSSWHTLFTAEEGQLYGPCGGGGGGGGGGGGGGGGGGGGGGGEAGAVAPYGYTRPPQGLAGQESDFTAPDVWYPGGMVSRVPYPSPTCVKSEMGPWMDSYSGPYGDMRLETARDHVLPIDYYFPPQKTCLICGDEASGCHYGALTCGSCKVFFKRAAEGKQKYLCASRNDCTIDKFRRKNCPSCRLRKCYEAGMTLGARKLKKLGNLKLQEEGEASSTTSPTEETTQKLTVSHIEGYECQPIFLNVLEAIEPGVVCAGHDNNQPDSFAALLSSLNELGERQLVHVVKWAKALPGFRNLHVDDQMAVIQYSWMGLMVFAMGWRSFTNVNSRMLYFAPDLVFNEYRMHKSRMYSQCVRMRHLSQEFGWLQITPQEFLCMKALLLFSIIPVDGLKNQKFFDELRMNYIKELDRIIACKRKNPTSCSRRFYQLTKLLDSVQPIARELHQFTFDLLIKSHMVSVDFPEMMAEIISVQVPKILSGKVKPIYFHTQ

[4] = Clearance in C57BL/6 mouse at 1 mg/kg, po measured upto 24 hrs by LC-MS/MS analysis; format: ADME, organism-based; conditions: in vivo
[5] = target: T2, Androgen receptor (Homo sapiens) (UniProt P10275); test: Induction of AR degradation in human LNCaP cells relative to control; format: cell-based
T2 sequence (whole entry): T1 sequence (P10275 whole entry)

[6] = Drug uptake in mouse plasma at 30 mg/kg, po; format: ADME, organism-based; conditions: in vivo
[7] = Oral bioavailability in Beagle dog at 1 mg/kg measured upto 24 hrs by LC-MS/MS analysis; format: ADME, organism-based, Canis lupus familiaris; conditions: in vivo
[8] = Clearance in Beagle dog at 1 mg/kg, po measured upto 24 hrs by LC-MS/MS analysis; format: ADME, organism-based, Canis lupus familiaris; conditions: in vivo
[9] = Volume of distribution at steady state in Han Wistar rat at 1 mg/kg, po measured upto 24 hrs by LC-MS/MS analysis; format: ADME, organism-based; conditions: in vivo
[10] = Volume of distribution at steady state in C57BL/6 mouse at 1 mg/kg, po measured upto 24 hrs by LC-MS/MS analysis; format: ADME, organism-based; conditions: in vivo
[11] = Lipophilicity, logD of the compound at pH 7.4 by shake-flask assay; format: physicochemical; conditions: buffer
[12] = Half-life in Beagle dog at 1 mg/kg, po measured upto 24 hrs by LC-MS/MS analysis; format: ADME, organism-based, Canis lupus familiaris; conditions: in vivo
Androgen receptor [13] = target: T1, Androgen receptor; test: Induction of AR degradation in human VCaP cells; format: cell-based
[14] = Half-life in C57BL/6 mouse at 1 mg/kg, po measured upto 24 hrs by LC-MS/MS analysis; format: ADME, organism-based; conditions: in vivo
[15] = Half-life in Han Wistar rat at 1 mg/kg, po measured upto 24 hrs by LC-MS/MS analysis; format: ADME, organism-based; conditions: in vivo
[16] = Volume of distribution at steady state in Beagle dog at 1 mg/kg, po measured upto 24 hrs by LC-MS/MS analysis; format: ADME, organism-based, Canis lupus familiaris; conditions: in vivo
[17] = target: T2, Androgen receptor (Homo sapiens); test: Induction of AR degradation in human VCaP cells relative to control; format: cell-based
[18] = Clearance in Han Wistar rat at 1 mg/kg, po measured upto 24 hrs by LC-MS/MS analysis; format: ADME, organism-based; conditions: in vivo
[19] = Oral bioavailability in Han Wistar rat at 1 mg/kg measured upto 24 hrs by LC-MS/MS analysis; format: ADME, organism-based; conditions: in vivo
Estrogen receptor = target: T3, Estrogen receptor (Homo sapiens, UniProt P03372); test: Induction of ERalpha degradation in human MCF7 cells; format: cell-based
T3 sequence (P03372 whole entry): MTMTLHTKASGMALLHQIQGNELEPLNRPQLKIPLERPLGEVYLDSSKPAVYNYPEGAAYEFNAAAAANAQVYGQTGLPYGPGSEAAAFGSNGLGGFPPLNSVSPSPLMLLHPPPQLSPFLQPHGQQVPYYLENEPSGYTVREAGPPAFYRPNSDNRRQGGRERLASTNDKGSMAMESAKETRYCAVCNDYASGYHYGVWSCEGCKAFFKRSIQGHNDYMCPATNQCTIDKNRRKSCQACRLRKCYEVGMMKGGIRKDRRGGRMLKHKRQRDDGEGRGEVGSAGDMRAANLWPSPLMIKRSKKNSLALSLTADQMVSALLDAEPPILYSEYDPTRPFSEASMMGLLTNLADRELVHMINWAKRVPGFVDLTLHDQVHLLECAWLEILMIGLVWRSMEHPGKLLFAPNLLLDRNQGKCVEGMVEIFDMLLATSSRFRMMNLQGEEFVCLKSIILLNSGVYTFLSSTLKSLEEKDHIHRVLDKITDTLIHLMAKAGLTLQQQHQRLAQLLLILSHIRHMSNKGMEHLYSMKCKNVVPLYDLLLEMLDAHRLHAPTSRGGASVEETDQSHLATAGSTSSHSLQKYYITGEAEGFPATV

[20] = target: T4, Estrogen receptor (Homo sapiens) (UniProt P03372); test: Induction of ERalpha degradation in human MCF7 cells relative to control; format: cell-based
T4 sequence (whole entry): T3 sequence (P03372 whole entry)

[21] = Drug uptake in mouse plasma at 60 mg/kg, po; format: ADME, organism-based; conditions: in vivo
[22] = Dissociation constant, pKa of the compound; format: physicochemical

Compound: Cc1ncsc1-c1ccc([C@H](C)NC(=O)[C@@H]2C[C@@H](O)CN2C(=O)[C@@H](NC(=O)COCCCCCNc2ccc(C(=O)N[C@H]3C(C)(C)[C@H](Oc4ccc(C#N)c(Cl)c4)C3(C)C)cc2)C(C)(C)C)cc1
- bioavailability [1]: 2%
- CHI [2]: 5.9
- DC50 (Androgen receptor [3]): 6 nM
- CL/F [4]: 4.7 mL/min/kg
- Emax [5]: 96%

Compound: Cc1ncsc1-c1ccc([C@H](CC[C@H](C)CCN2CCC(c3ccc4c(c3)n3c5cccc(Br)c5c(=O)nc3n4C3CCCC3)CC2)NC(=O)[C@@H]2C[C@@H](O)CN2C(=O)[C@@H](NC(=O)C2(F)CC2)C(C)(C)C)cc1
- Drug uptake [6]: Active

Compound: COc1cc(O[C@H]2C(C)(C)[C@H](NC(=O)c3ccc(N4CCC(CN5CCN(c6ccc(C(=O)N[C@H]7CCC(=O)NC7=O)c(F)c6)CC5)CC4)cc3)C2(C)C)ccc1C#N [LUXDEGALUTAMIDE]
- bioavailability [7]: 33%
- CL/F [8]: 6.4 mL/min/kg
- bioavailability [1]: 58%
- Vdss [9]: 9.1 L/kg
- Vdss [10]: 2.3 L/kg
- logD [11]: 4.7
- half-life [12]: 31 h
- DC50 (Androgen receptor [13]): < 1 nM
- CHI [2]: 5
- half-life [14]: 6.8 h
- CL/F [4]: 4.2 mL/min/kg
- half-life [15]: 7.4 h
- Vdss [16]: 15 L/kg
- Emax [17]: > 70%
- CL/F [18]: 16 mL/min/kg
- bioavailability [19]: 38%

Compound: C[C@@H]1Cc2c([nH]c3ccccc23)[C@@H](c2cnc(N3CCC(NC4CCN(c5ccc6c(c5)CN(C5CCC(=O)NC5=O)C6=O)CC4)CC3)nc2)N1CC(C)(C)F (stereo not given in full)
- IC50 (Estrogen receptor): ≤ 1 nM
- bioavailability [1]: < 1%
- CHI [2]: 4.6
- CL/F [4]: 51.4 mL/min/kg
- Emax [20]: > 90%

Compound: COc1cc(O[C@H]2C(C)(C)[C@H](NC(=O)c3ccc(N4CCC(CN5CCN(c6ccc(C(=O)N[C@@H]7CCC(=O)NC7=O)c(F)c6)CC5)CC4)cc3)C2(C)C)ccc1C#N
- DC50 (Androgen receptor [13]): 1 nM
- Emax [17]: < 50%

Compound: N#Cc1ccc(O[C@H]2CC[C@H](NC(=O)c3ccc(N4CCC(CN5CCN(c6cc7c(cc6F)C(=O)N(C6CCC(=O)NC6=O)C7=O)CC5)CC4)nn3)CC2)cc1Cl (stereo not given in full) [BAVDEGALUTAMIDE]
- bioavailability [7]: 14%
- CL/F [8]: 4.7 mL/min/kg
- bioavailability [1]: 65%
- Vdss [9]: 7.8 L/kg
- Vdss [10]: 3.8 L/kg
- logD [11]: 4.8
- half-life [12]: 32 h
- CHI [2]: 5.1
- half-life [14]: 13 h
- CL/F [4]: 3.9 mL/min/kg
- half-life [15]: 9.3 h
- Vdss [16]: 13 L/kg
- CL/F [18]: 9 mL/min/kg
- bioavailability [19]: 51%

Compound: C[C@@H]1Cc2c([nH]c3ccccc23)[C@@H](c2cnc(N3CCC(CNC4CCN(c5ccc6c(c5)CN(C5CCC(=O)NC5=O)C6=O)CC4)CC3)nc2)N1CC(C)(C)F (stereo not given in full)
- IC50 (Estrogen receptor): ≤ 1 nM
- bioavailability [1]: < 1%
- CHI [2]: 4.7
- CL/F [4]: 26.6 mL/min/kg
- Emax [20]: > 90%

Compound: O=C1CC[C@H](N2Cc3cc(N4CCN(CC5CCN(c6ccc([C@@H]7c8ccc(O)cc8CC[C@@H]7c7ccccc7)cc6)CC5)CC4)ccc3C2=O)C(=O)N1 [VEPDEGESTRANT]
- bioavailability [7]: 5%
- CL/F [8]: 3 mL/min/kg
- bioavailability [1]: 59%
- logD [11]: 4.6
- half-life [12]: 11 h
- CHI [2]: 5.3
- half-life [14]: 6.2 h
- CL/F [4]: 35 mL/min/kg
- half-life [15]: 15 h
- CL/F [18]: 28 mL/min/kg
- bioavailability [19]: 24%

Compound: C[C@@H]1Cc2c(n(C)c3ccccc23)[C@@H](c2cnc(N3CCC(CCN4CCN(c5ccc6c(c5)CN(C5CCC(=O)NC5=O)C6=O)CC4)CC3)nc2)N1CC(C)(C)F (mixture of isomers)
- bioavailability [1]: 38%
- CHI [2]: 7
- CL/F [4]: 5.3 mL/min/kg

Compound: Cc1ncsc1-c1ccc(CNC(=O)[C@@H]2C[C@@H](O)CN2C(=O)[C@@H](NC(=O)CCCCCCCCCCNC(=O)O[C@H]2C[C@@H](C)C=C3C=C[C@H](C)[C@H](CC[C@@H]4C[C@@H](O)CC(=O)O4)[C@H]32)C(C)(C)C)cc1
- Drug uptake [21]: Active

Compound: C[C@@H]1Cc2c([nH]c3ccccc23)[C@@H](c2cnc(N3CCC(CN4CCN(c5ccc6c(c5)CN(C5CCC(=O)NC5=O)C6=O)CC4)CC3)nc2)N1CC(C)(C)F (stereo not given in full)
- IC50 (Estrogen receptor): ≤ 1 nM
- bioavailability [1]: 45%
- CHI [2]: 6.1
- CL/F [4]: 6.1 mL/min/kg
- Emax [20]: > 90%

Compound: C[C@@H]1Cc2c([nH]c3ccccc23)[C@@H](c2cnc(N3CCC(CN(C)C4CCN(c5ccc6c(c5)CN(C5CCC(=O)NC5=O)C6=O)CC4)CC3)nc2)N1CC(C)(C)F (stereo not given in full)
- IC50 (Estrogen receptor): ≤ 1 nM
- bioavailability [1]: 12%
- CHI [2]: 5.6
- CL/F [4]: 19.3 mL/min/kg
- Emax [20]: > 90%

Compound: Cn1c(=O)n(C2CCC(=O)NC2=O)c2cccc(C#CCOC3CCN(C[C@H]4CC[C@H](n5cc(NC(=O)c6cnn7ccc(N8C[C@H]9C[C@@H]8CO9)nc67)c(C(F)F)n5)CC4)CC3)c21 (stereo not given in full) [KT-474]
- bioavailability [7]: 51%
- CL/F [8]: 16 mL/min/kg
- bioavailability [1]: 24%
- Vdss [9]: 7.7 L/kg
- Vdss [10]: 2.7 L/kg
- logD [11]: 3.6
- CHI [2]: 2.3
- pKa [22]: 8.5
- CL/F [4]: 17 mL/min/kg
- Vdss [16]: 6.7 L/kg
- CL/F [18]: 51 mL/min/kg
- bioavailability [19]: 7%

Compound: C[C@@H]1Cc2c([nH]c3ccccc23)[C@@H](c2cnc(N3CCC(CCN4CCN(c5ccc6c(c5)CN(C5CCC(=O)NC5=O)C6=O)CC4)CC3)nc2)N1CC(C)(C)F (stereo not given in full)
- IC50 (Estrogen receptor): ≤ 1 nM
- bioavailability [1]: 15%
- CHI [2]: 6.1
- CL/F [4]: 5 mL/min/kg
- Emax [20]: > 90%
